Consider 22 molecules from patent US12534457B2, “Heteroaryl derivative compounds, and uses thereof” (Voronoi Inc., priority 2021, dated 2026).

The GI50 is the concentration giving 50% growth inhibition.

Structures are written as SMILES. Some results are limits rather than exact numbers.

The experiment deals with Ba/F3 cells expressing EGFR Del19/C797S (EGFR DC). Kind of experiment: Proliferation inhibitory activity, Ba/F3 cells expressing EGFR Del19/C797S (CellTiter-Glo). Format: cell-based. Conditions: Mus musculus, BaF3, 72 hours of compound treatment. The method, boiled down:
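Viability after 72 h of compound exposure was measured by luminescence (CellTiter-Glo) in Ba/F3 lines transduced with mutant EGFR. Final concentrations spanned 0.2 nM–5 μM over 12 threefold steps. Growth relative to untreated control gave GI50 values; each test was run three times.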
On the technique in general: In ATP-based viability assays light output follows the ATP content of the culture.

Consider `COc1cc(N2CCC(N3CCN(C)CC3)CC2)ccc1Nc1cc(N2OCC[C@@H]2c2cccc(C(=O)OC(C)C)c2)ncn1` [Example 100, isopropyl (R)-3-(2-(6-((2-methoxy-4-(4-(4-methylpiperazin-1-yl)piperidin-1-yl)phenyl)amino)pyrimidin-4-yl)isoxazolidin-3-yl)benzoate], for which the GI50 was 50 to 500 nM.

As to `COc1cc(N2CCN(C3CCN(C)CC3)CC2)ccc1Nc1cc(N2OCC[C@@H]2c2ccccc2)ncn1` [Example 101, (R)—N-(2-methoxy-4-(4-(1-methylpiperidin-4-yl)piperazin-1-yl)phenyl)-6-(3-phenylisoxazolidin-2-yl)pyrimidin-4-amine], the GI50 was < 50 nM. To `Cc1cc(Nc2cc(N3OCC[C@@H]3c3cc(F)ccc3F)ncn2)ccc1N1CCC(N2CCN(C)CC2)CC1` [Example 103, (R)-6-(3-(2,5-difluorophenyl)isoxazolidin-2-yl)-N-(3-methyl-4-(4-(4-methylpiperazin-1-yl)piperidin-1-yl)phenyl)pyrimidin-4-amine] belongs < 50 nM; to `COc1cc(Nc2cc(N3OCC[C@@H]3c3ccc(Cl)cc3F)ncn2)ccc1N1CCC(N2CCN(C)CC2)CC1` [Example 105, (R)-6-(3-(4-chloro-2-fluorophenyl)isoxazolidin-2-yl)-N-(3-methoxy-4-(4-(4-methylpiperazin-1-yl)piperidin-1-yl)phenyl)pyrimidin-4-amine], < 50 nM.

In the case of `COc1cc(Nc2cc(N3OCC[C@@H]3c3cc(F)ccc3F)ncn2)ccc1N1CCC(N2CCN(C)CC2)CC1` [Example 106, (R)-6-(3-(2,5-difluorophenyl)isoxazolidin-2-yl)-N-(3-methoxy-4-(4-(4-methylpiperazin-1-yl)piperidin-1-yl)phenyl)pyrimidin-4-amine], the GI50 was < 50 nM.

Regarding `Cc1cc(Nc2cc(N3OCC[C@@H]3c3ccccc3)ncn2)ccc1N1CCN(C)CC1` [Example 107, (R)—N-(3-methyl-4-(4-methylpiperazin-1-yl)phenyl)-6-(3-phenylisoxazolidin-2-yl)pyrimidin-4-amine], the 50% growth inhibitory concentration (GI50) is < 50 nM.

Take `Cc1cc(N2CCOCC2)ccc1Nc1cc(N2OCC[C@@H]2c2ccccc2)ncn1` [Example 108, (R)—N-(2-methyl-4-morpholinophenyl)-6-(3-phenylisoxazolidin-2-yl)pyrimidin-4-amine]: the GI50 is < 50 nM.

With `CCc1cc(Nc2cc(N3OCC[C@@H]3c3ccccc3)ncn2)c(OC)cc1N1CCC(N2CCN(C)CC2)CC1` [Example 109, (R)—N-(5-ethyl-2-methoxy-4-(4-(4-methylpiperazin-1-yl)piperidin-1-yl)phenyl)-6-(3-phenylisoxazolidin-2-yl)pyrimidin-4-amine], the 50% growth inhibitory concentration (GI50) was < 50 nM. Consider `COc1cc(N2CCOCC2)ccc1Nc1cc(N2OCC[C@@H]2c2ccccc2)ncn1` [Example 110, (R)—N-(2-methoxy-4-morpholinophenyl)-6-(3-phenylisoxazolidin-2-yl)pyrimidin-4-amine], for which the GI50 is < 50 nM. As to `COc1cc(N2CCC(N3CCN(C)CC3)CC2)ccc1Nc1cc(N2OCC[C@@H]2c2ccccc2)nc(N)n1` [Example 111, (R)—N4-(2-methoxy-4-(4-(4-methylpiperazin-1-yl)piperidin-1-yl)phenyl)-6-(3-phenylisoxazolidin-2-yl)pyrimidin-2,4-diamine], the GI50 was in the range of 50 to 500 nM.

For the molecule `COc1cc(N2CCC(N3CCN(C)CC3)CC2)ccc1Nc1ncnc(N2OCC[C@@H]2c2ccccc2)n1` [Example 112, (R)—N-(2-methoxy-4-(4-(4-methylpiperazin-1-yl)piperidin-1-yl)phenyl)-4-(3-phenylisoxazolidin-2-yl)-1,3,5-triazin-2-amine], the GI50 lay in the range of 50 to 500 nM. For the molecule `COc1cc(NC2CCN(C)CC2)ccc1Nc1cc(N2OCC[C@@H]2c2ccccc2)ncn1` [Example 113, (R)-2-methoxy-N4-(1-methylpiperidin-4-yl)-N1-(6-(3-phenylisoxazolidin-2-yl)pyrimidin-4-yl)benzene-1,4-diamine], the GI50 is < 50 nM. To `COc1cc(N2CCC(N3CCN(C)CC3)CC2)c(C)cc1Nc1cc(N2OCC[C@@H]2c2ccccc2)ncn1` [Example 114, (R)—N-(2-methoxy-5-methyl-4-(4-(4-methylpiperazin-1-yl)piperidin-1-yl)phenyl)-6-(3-phenylisoxazolidin-2-yl)pyrimidin-4-amine] belongs < 50 nM; to `COc1cc(N2CCC(N3CCC(N(C)C)CC3)CC2)ccc1Nc1cc(N2OCC[C@@H]2c2ccccc2)ncn1` [Example 115, (R)-1′-(3-methoxy-4-((6-(3-phenylisoxazolidin-2-yl)pyrimidin-4-yl)amino)phenyl)-N,N-dimethyl-[1,4′-bipiperidin]-4-amine], < 50 nM. In the case of `CCN1C[C@H]2C[C@@H]1CN2C1CCN(c2ccc(Nc3cc(N4OCC[C@@H]4c4ccccc4)ncn3)c(OC)c2)CC1` [Example 116, N-(4-(4-((1R,4R)-5-ethyl-2,5-diazabicyclo[2.2.1]heptan-2-yl)piperidin-1-yl)-2-methoxyphenyl)-6-((R)-3-phenylisoxazolidin-2-yl)pyrimidin-4-amine], the GI50 was < 50 nM. Consider `CCc1cc(Nc2cc(N3OCC[C@@H]3c3ccccc3)ncn2)ccc1N1CCC(N2CCN(C)CC2)CC1` [Example 117, (R)—N-(3-ethyl-4-(4-(4-methylpiperazin-1-yl)piperidin-1-yl)phenyl)-6-(3-phenylisoxazolidin-2-yl)pyrimidin-4-amine], for which the GI50 was < 50 nM.

`CCN1CCN(C2CCN(c3ccc(Nc4cc(N5OCC[C@@H]5c5ccccc5)ncn4)c(OC)c3)CC2)CC1` [Example 118, (R)—N-(4-(4-(4-ethylpiperazin-1-yl)piperidin-1-yl)-2-methoxyphenyl)-6-(3-phenylisoxazolidin-2-yl)pyrimidin-4-amine]: the GI50 was < 50 nM.

As to `COc1cc(N2CCC(N(C)C)CC2)ccc1Nc1cc(N2OCC[C@@H]2c2ccccc2)ncn1` [Example 119, (R)—N-(4-(4-(dimethylamino)piperidin-1-yl)-2-methoxyphenyl)-6-(3-phenylisoxazolidin-2-yl)pyrimidin-4-amine], the GI50 is < 50 nM. For the molecule `COc1cc(N2CCC(N3CCOCC3)CC2)ccc1Nc1cc(N2OCC[C@@H]2c2ccccc2)ncn1` [Example 120, (R)—N-(2-methoxy-4-(4-morpholinopiperidin-1-yl)phenyl)-6-(3-phenylisoxazolidin-2-yl)pyrimidin-4-amine], the GI50 was < 50 nM. Take `COc1cc(Nc2cc(N3OCC[C@@H]3c3ccccc3)ncn2)ccc1N1CCC(N2CCN(CCO)CC2)CC1` [Example 121, (R)-2-(4-(1-(2-methoxy-4-((6-(3-phenylisoxazolidin-2-yl)pyrimidin-4-yl)amino)phenyl)piperidin-4-yl)piperazin-1-yl)ethan-1-ol]: the GI50 was < 50 nM.

Take `CC(=O)N1CCN(c2ccc(Nc3cc(N4OCC[C@@H]4c4ccccc4)ncn3)cc2)CC1` [Example 122, (R)-1-(4-(4-((6-(3-phenylisoxazolidin-2-yl)pyrimidin-4-yl)amino)phenyl)piperazin-1-yl)ethan-1-one]: the GI50 was < 50 nM. With `CN1CCN(C2CCN(c3c(F)cc(Nc4cc(N5OCC[C@@H]5c5ccccc5)ncn4)cc3F)CC2)CC1` [Example 123, (R)—N-(3,5-difluoro-4-(4-(4-methylpiperazin-1-yl)piperidin-1-yl)phenyl)-6-(3-phenylisoxazolidin-2-yl)pyrimidin-4-amine] the figure was < 50 nM.
